Results reported in patent US8450313B2, “2,3-diaryl- or heteroaryl-substituted 1,1,1-trifluoro-2-hydroxypropyl compounds” (Hoffmann-La Roche Inc., priority 2009, dated 2013).

Biological target: T1, full length human recombinant glucocorticoid receptor (Homo sapiens, UniProt P04150)
T1 construct: It contains some partially purified full length human recombinant glucocorticoid receptor; purchased Panvera/Invitrogen PV4302
T1 sequence (P04150 1-777): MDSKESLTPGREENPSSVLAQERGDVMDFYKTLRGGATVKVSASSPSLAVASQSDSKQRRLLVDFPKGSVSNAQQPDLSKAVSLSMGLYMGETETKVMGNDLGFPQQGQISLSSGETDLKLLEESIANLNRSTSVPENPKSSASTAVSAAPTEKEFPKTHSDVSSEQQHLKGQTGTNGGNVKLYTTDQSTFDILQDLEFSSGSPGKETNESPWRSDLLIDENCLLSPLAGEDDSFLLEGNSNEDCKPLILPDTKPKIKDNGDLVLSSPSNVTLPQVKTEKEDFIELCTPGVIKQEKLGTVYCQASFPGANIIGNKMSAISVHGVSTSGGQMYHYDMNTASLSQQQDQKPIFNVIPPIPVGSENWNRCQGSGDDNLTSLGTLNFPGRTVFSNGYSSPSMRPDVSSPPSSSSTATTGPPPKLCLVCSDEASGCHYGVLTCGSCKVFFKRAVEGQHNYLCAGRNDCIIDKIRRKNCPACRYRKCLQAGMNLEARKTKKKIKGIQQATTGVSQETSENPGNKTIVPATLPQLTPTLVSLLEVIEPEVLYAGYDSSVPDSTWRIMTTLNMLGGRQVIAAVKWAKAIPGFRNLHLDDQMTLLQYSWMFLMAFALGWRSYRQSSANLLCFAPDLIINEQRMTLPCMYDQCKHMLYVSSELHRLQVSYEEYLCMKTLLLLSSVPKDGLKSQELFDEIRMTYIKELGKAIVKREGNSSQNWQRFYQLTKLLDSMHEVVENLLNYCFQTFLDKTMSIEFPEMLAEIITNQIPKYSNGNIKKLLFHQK
Assay: Glucocorticoid Receptor Binding Assay (Glucocorticoid Receptor Competitor Assay far red kit, fluorescence polarization)
Settings: competition with fluorescent GR ligand Fluormone GS Far Red, 3 hours at 22° C., pH 7.4; Ki calculated from IC50 by Cheng-Prusoff
Experimental: Glucocorticoid Receptor Binding Assay
The ability of the substances to bind to the glucocorticoid receptor was determined with the help of a commercial Glucocorticoid Receptor Competitor Assay far red kit provided by Panvera/Invitrogen (PV4302). This kit is used as provided by the supplier. It contains some partially purified full length human recombinant glucocorticoid receptor, a coactivator related GR stabilizing peptide, a tight-binding fluorescent GR ligand Fluormone™ GS Far Red as labeled tracer and a screening buffer. All reagents are prepared and the assay is run according to the recommendations of the kit manufacturer.
Briefly, the GR stabilizing peptide and the human recombinant glucocorticoid receptor are both diluted with the screening buffer (pH 7.4) and are gently mixed (no vortexing) just before the assay and kept on ice until use. The fluorescent-labeled ligand is also diluted with the screening buffer just before the assay and kept on ice until use. The substances to test are pre-diluted in pure DMSO then some water is added to get an intermediate 4.2% DMSO stock solution. Ten microliter of the intermediate stock solution is gently mixed with 5 μA of diluted fluorescent-labeled ligand and 5 μl of diluted human recombinant glucocorticoid receptor in a 384-well plate (low volume, ultraclear, glass plate from Greiner ref 788896). The plate is centrifuged, sealed and incubated for 3 hours at 22° C. in the dark. The polarized fluorescence is measured with a Zeiss-HTS reader or any equivalent equipment (610-660 nm).
All compounds were tested to determine IC50 in a serial dilution experiment. The concentration at which 50% inhibition of the fluorescent GR ligand Fluormone™ GS Far Red is obtained (the IC50) is determined after fitting with a sigmoidal dose-response model of a plot of the logarithm of the concentration versus percent inhibition measured for the different concentrations. Ki's were calculated from IC50 based on Cheng-Prusoff equation (Cheng, Y, Prusoff, W H (1973) Biochem Pharmacol 22, 3099-3108): Ki=IC50/[1+D/Kd] wherein D is the concentration of the fluorescent ligand and Kd is the binding constant for the fluorescent ligand binding to the receptor under the conditions used in the competition experiment.

Ki [nM]	Structure (SMILES)
0.6	COC(=O)c1ccc(Oc2ccc([C@H](C)[C@](O)(c3cc4c(cc3F)OCC(=O)N4C)C(F)(F)F)c(Cl)c2)cc1Cl (relative stereo) [Example 138, 2-Chloro-4-{3-chloro-4-[3,3,3-trifluoro-2-(7-fluoro-4-methyl-3-oxo-3,4-dihydro-2H-benzo[1,4]oxazin-6-yl)-2-hydroxy-1-methyl-propyl]-phenoxy}-benzoic acid methyl ester]
3	COC(=O)c1cnc(Oc2ccc([C@@H](C)[C@@](O)(c3ccc4c(c3)N(C)C(=O)CO4)C(F)(F)F)c(Cl)c2)cn1 (racemic) [Example 227, 5-{3-Chloro-4-[3,3,3-trifluoro-2-hydroxy-1-methyl-2-(4-methyl-3-oxo-3,4-dihydro-2H-benzo[1,4]oxazin-6-yl)-propyl]-phenoxy}-pyrazine-2-carboxylic acid methyl ester]
1.8	C[C@H](c1ccc(Oc2ncc(C(=O)O)cn2)cc1Cl)[C@@](O)(c1ccc2oc(=O)n(C)c2c1)C(F)(F)F (relative stereo) [Example 203, 2-{3-Chloro-4-[3,3,3-trifluoro-2-hydroxy-1-methyl-2-(3-methyl-2-oxo-2,3-dihydro-benzooxazol-5-yl)-propyl]-phenoxy}-pyrimidine-5-carboxylic acid]
1.1	C[C@H](c1ccc(Oc2ccc(C(=O)O)c(C(F)(F)F)c2)cc1Cl)[C@@](O)(c1ccc2c(c1)N(C)C(=O)CO2)C(F)(F)F (racemic) [Example 220, 4-{3-Chloro-4-[3,3,3-trifluoro-2-hydroxy-1-methyl-2-(4-methyl-3-oxo-3,4-dihydro-2H-benzo[1,4]oxazin-6-yl)-propyl]-phenoxy}-2-trifluoromethyl-benzoic acid]
19.8	C[C@H](c1ccc(Oc2ccc(C(=O)O)cn2)cc1Cl)[C@@](O)(c1ccc(C#N)cc1)C(F)(F)F (stereo in doubt) [Example 157, 6-{3-Chloro-4-[2-(4-cyano-phenyl)-3,3,3-trifluoro-2-hydroxy-1-methyl-propyl]-phenoxy}-nicotinic acid]
46.2	C[C@H](c1ccc(-c2ccc(C(=O)O)c(F)c2)cc1Cl)[C@@](O)(c1ccc(C#N)cc1)C(F)(F)F (relative stereo) [Example 152, 3′-Chloro-4′-[2-(4-cyano-phenyl)-3,3,3-trifluoro-2-hydroxy-1-methyl-propyl]-3-fluoro-biphenyl-4-carboxylic acid]
192	CC(c1ccc(Oc2ccc(C(=O)O)c(Cl)c2)cc1Cl)C(O)(c1ccc(C#N)cc1)C(F)(F)F (stereo not drawn) [Example 156, 2-Chloro-4-{3-chloro-4-[2-(4-cyano-phenyl)-3,3,3-trifluoro-2-hydroxy-1-methyl-propyl]-phenoxy}-benzoic acid]
2.2	CCOC(=O)c1cccc(-c2ccc([C@@H](C)[C@@](O)(c3ccc4oc(=O)n(C)c4c3)C(F)(F)F)c(Cl)c2)n1 (relative stereo) [Example 188, 6-{3-Chloro-4-[3,3,3-trifluoro-2-hydroxy-1-methyl-2-(3-methyl-2-oxo-2,3-dihydro-benzooxazol-5-yl)-propyl]-phenyl}-pyridine-2-carboxylic acid ethyl ester]
6.2	CCOC(=O)C(C)(C)Oc1ccc([C@@H](C)[C@@](O)(c2ccc3c(c2)N(C)C(=O)CO3)C(F)(F)F)c(Cl)c1 (racemic) [Example 206, 2-{3-Chloro-4-[3,3,3-trifluoro-2-hydroxy-1-methyl-2-(4-methyl-3-oxo-3,4-dihydro-2H-benzo[1,4]oxazin-6-yl)-propyl]-phenoxy}-2-methyl-propionic acid ethyl ester]

Second part, the molecule before the results:

Structure (SMILES)	Ki [nM]
C[C@H](c1ccc(-c2ccc(C(=O)O)c(F)c2)cc1Cl)[C@@](O)(c1ccc2oc(=O)n(C)c2c1)C(F)(F)F (racemic) [Example 118, 3′-Chloro-3-fluoro-4′-[3,3,3-trifluoro-2-hydroxy-1-methyl-2-(3-methyl-2-oxo-2,3-dihydro-benzooxazol-5-yl)-propyl]-biphenyl-4-carboxylic acid]	1
COC(=O)c1ccc(-c2ccc([C@@H](C)[C@@](O)(c3ccc4oc(=O)n(C)c4c3)C(F)(F)F)c(Cl)c2)nc1 (stereo in doubt) [Example 127, 6-{3-Chloro-4-[3,3,3-trifluoro-2-hydroxy-1-methyl-2-(3-methyl-2-oxo-2,3-dihydro-benzooxazol-5-yl)-propyl]-phenyl}-nicotinic acid methyl ester]	0.7
C[C@@H](c1ccc(-c2ccc(C(=O)O)cc2F)cc1Cl)[C@](O)(c1ccc2c(c1)N(C)C(=O)CO2)C(F)(F)F (stereo in doubt) [Example 34, 3′-Chloro-2-fluoro-4′-[3,3,3-trifluoro-2-hydroxy-1-methyl-2-(4-methyl-3-oxo-3,4-dihydro-2H-benzo[1,4]oxazin-6-yl)-propyl]-biphenyl-4-carboxylic acid]	7.8
C[C@H](c1ccc(Oc2nc(C(F)(F)F)ccc2C(=O)O)cc1Cl)[C@@](O)(c1ccc2c(c1)n(C)c(=O)n2C)C(F)(F)F (stereo in doubt) [Example 111, 2-{3-Chloro-4-[2-(1,3-dimethyl-2-oxo-2,3-dihydro-1H-benzoimidazol-5-yl)-3,3,3-trifluoro-2-hydroxy-1-methyl-propyl]-phenoxy}-6-trifluoromethyl-nicotinic acid]	36
C[C@H](c1ccc(-c2ccc(C(=O)O)c(Cl)c2)cc1Cl)[C@@](O)(c1ccc2c(c1)oc(=O)n2C)C(F)(F)F (relative stereo) [Example 135, 3,3′-Dichloro-4′-[3,3,3-trifluoro-2-hydroxy-1-methyl-2-(3-methyl-2-oxo-2,3-dihydro-benzooxazol-6-yl)-propyl]-biphenyl-4-carboxylic acid]	154
C[C@H](c1ccc(-c2ccc(C(=O)O)c(Cl)c2)cc1Cl)[C@@](O)(c1ccc2c(c1)n(C)c(=O)n2C)C(F)(F)F (stereo in doubt) [Example 76, 3,3′-Dichloro-4′-[2-(1,3-dimethyl-2-oxo-2,3-dihydro-1H-benzoimidazol-5-yl)-3,3,3-trifluoro-2-hydroxy-1-methyl-propyl]-biphenyl-4-carboxylic acid]	1
C[C@@H](c1ccc(-c2ccc(Cl)c(C(=O)O)c2)cc1Cl)[C@](O)(c1ccc2c(c1)N(C)C(=O)CO2)C(F)(F)F (stereo in doubt) [Example 40, 4,3′-Dichloro-4′-[3,3,3-trifluoro-2-hydroxy-1-methyl-2-(4-methyl-3-oxo-3,4-dihydro-2H-benzo[1,4]oxazin-6-yl)-propyl]-biphenyl-3-carboxylic acid]	1.5
CCOC(=O)C1CCN(c2ccc([C@H](C)[C@](O)(c3ccc4c(c3)N(C)C(=O)CO4)C(F)(F)F)c(Cl)c2)CC1 (stereo in doubt) [Example 42, 1-{3-Chloro-4-[3,3,3-trifluoro-2-hydroxy-1-methyl-2-(4-methyl-3-oxo-3,4-dihydro-2H-benzo[1,4]oxazin-6-yl)-propyl]-phenyl}-piperidine-4-carboxylic acid ethyl ester]	4
CCOC(=O)COc1cc(-c2ccc([C@H](C)[C@](O)(c3cc(F)c4c(c3)N(C)C(=O)CO4)C(F)(F)F)c(Cl)c2)ccc1F (relative stereo) [Example 47, {3′-Chloro-4-fluoro-4′-[3,3,3-trifluoro-2-(8-fluoro-4-methyl-3-oxo-3,4-dihydro-2H-benzo[1,4]oxazin-6-yl)-2-hydroxy-1-methyl-propyl]-biphenyl-3-yloxy}-acetic acid ethyl ester]	2
